In the NIST ThermoML archive (doi:10.1021/je8007588):
Numbers after ± are expanded uncertainties.

Details: 298.15 K; 101.33 kPa; Liquid; Vibrating tube method

mass density: 1123.6 ± 6.9 kg/m3
SMILES: CCCCCC[N+](C)(C)CCO.F[B-](F)(F)F [hexyl(2-hydroxyethyl)dimethylammonium tetrafluoroborate]
